# From patent US20200171056A1, “SULFONYLUREA COMPOUNDS IN THE TREATMENT OF DISEASE ASSOCIATED WITH UV-INDUCED DAMAGE” (CeMM - Forschungszentrum für Molekulare Medizin GmbH, priority 2017, published 2020)
# Columns and labels:
# Assay type in all cases: cell-based, human
# [1] = tested on: MUTYH; assay: MUTYH protein levels by immunoblotting; settings: WT HAP1, 0.5 mM for 6 hours, alone or with 10 μM MG132 (FIG. 4A-B)
# Protocol: A. WT HAP1 cells were treated with or without 0.5 mM acetohexamide for 6 hours, then released into compound-free media for the indicated time points and immunoblotted with an anti-MUTYH antibody. ACTIN was used as a loading control. B. WT HAP1 cells were either treated with 0.5 mM acetohexamide alone or with 10 μM of the proteasome inhibitor MG132 for 6 hours and analyzed by immunoblotting using an anti-MUTYH antibody. C. Left panel: colony formation of the WT, ΔXPA or ΔXPA-MUTYH HAP1 cells treated with or without 0.5 mM acetohexamide for 6 hours, followed by 15 J/M^2 UV irradiation and then kept in culture for 10 days. Right panel: Macroscopic colonies were stained with crystal violet and quantified. D. WT, ΔXPA or ΔXPA-MUTYH HAP1 cells were treated with 15 J/M^2 UV or left untreated, then kept in culture for the indicated recovery times and analyzed by dot blot for the presence of CPDs within genomic DNA. E. Number of chromosomal abnormalities per metaphase spread of ΔXPA or ΔXPA-MUTYH HAP1 exposed to different doses of UV irradiation. Data in (E) represented as mean±SEM. F. Survival of WT and ΔMULE HAP1 cells exposed to UV irradiation at different doses and assessed after 3 days, using CellTitre-Glo.
# Cells were lysed in lysis buffer composed of RIPA lysis buffer supplemented with protease inhibitors (Sigma) and phosphatase inhibitors (Sigma, NEB). […]
# [2] = tested on: MUTYH-deficient (ΔMUTYH) cells; assay: Survival of MUTYH-deficient cells after UV irradiation; settings: pre-incubation with 0.5 mM acetohexamide; 3 days (FIG. 3B)
# Text: FIG. 3. Loss of MUTYH mimics acetohexamide function A. Bubble plot displaying the percentage of rescue, defined as the difference in survival of a given cell line treated with acetohexamide compared to untreated, following UV irradiation. The light grey, dark grey bubbles highlight ΔMUTYH, ΔXPA […], and black bubbles indicate the rest of the knockout cell lines and WT HAP1. The size of the bubbles indicates the significance as log10 (p-value). BER: base excision repair; NER: nucleotide excision repair; DSBR; double-strand break repair; MMR: mis-match repair; FA: Fanconi aneamia; DR; direct reversal; TLS; translesion synthesis. B. Survival of WT and MUTYH-deficient (ΔMUTYH) cells with or without 0.5 mM acetohexamide treatment, followed by UV irradiation, as assessed after 3 days using CellTitre-Glo. Loss of MUTYH protein was confirmed by immunoblotting using an anti-MUTYH antibody. ACTIN was used as a loading control. C. Deletion of MUTYH in WT HAP1 or an XPA-deficient background was confirmed by immunoblotting using an anti-MUTYH antibody. TUBULIN was used as a loading control. […]
# For UV irradiation, cells were washed with PBS, trypsinized, counted and distributed in equal number then irradiated with different doses of UV as indicated. […] After 72 hours, survival was measured using Cell Titer-Glo (Promega). […]
# [3] = tested on: SUR1 transcript; assay: SUR1 mRNA expression by quantitative reverse transcription PCR; settings: ΔXPA cells, 0.5 mM for 6 hours, 15 J/M^2 UV (FIG. 9B)
# Protocol: A. Fragments Per Kilobase Million (FPKM) for SUR1 and GAPDH in HAP1 WT cells compared, from RNA sequencing. B. mRNA expression of SUR1 transcript assessed by quantitative reverse transcription PCR in WT and ΔXPA cells with or without 0.5 mM acetohexamide treatment for 6 hours, followed by 15 J/M^2 UV irradiation and subsequent recovery as indicated. Expression of GAPDH was used as a reference. Error bars indicate SEM (n=3).
# WT and ΔXPA HAP1 cells were harvested and RNA was isolated using phenol-chlorophorm extraction. After treatment with 1 μl DNase (Sigma), the cDNA was transcribed using SuperScript III Reverse Transcriptase (Invitrogen). An amount of 1 μg of cDNA template was used for the qRT-PCR using SYBR Green qPCR Mastermix (Qiagen). Analysis was performed in triplicates using GAPDH as a control gene. The PCR was performed on a 7900HT Fast Real-Time PCR System (Applied Biosystems). The following primers were used: […]
# [4] = tested on: CPDs in genomic DNA of HAP1 cell lines; assay: Dot blot for cyclobutane pyrimidine dimers; settings: HAP1 WT and ΔXPA, 0.5 mM, 15 J/M^2 (FIG. 7C-D)
# Protocol: A. Dose-response curve of WT and ΔXPA cells treated with or without 0.5 mM acetohexamide for the indicated times, followed by UV irradiation. Survival was assessed after 3 days, using CellTiter-Glo. […] Error bars indicate SEM (n=3). B. Clonogenic survival of WT and ΔXPA cells treated with 0.5 mM acetohexamide for 6 hours or left untreated, then exposed to illudin S for 10 days, as indicated. C. WT and ΔXPA cells treated with or without 0.5 mM acetohexamide for the indicated times, followed by 15 J/M^2 irradiation and analyzed by dot blot for the presence of CPDs in genomic DNA. DNA was counterstained with methylene blue (MB) as a loading control. D. Quantification of the intensities of C.
# The amount of cyclobutane pyrimidine dimers (CPDs) in DNA was quantified using an immuno-dot blot assay with the CPD-specific monoclonal antibody TDM-2 (Cosmo Bio). Genomic DNA was extracted using QIAamp DNA mini kit (Qiagen), then the genomic DNA was denatured in TE buffer (10 mM Tris-CL and 1 mM EDTA, pH 7.5) by boiling for 5 minutes and subsequently 50 ng of genomic DNA was dot-blotted in triplicate onto a nitrocellulose membrane. The DNA was then fixed by baking the membrane for 2 hours at 80° C. […] Signals were detected using Amersham ECL (GE Healthcare Life Sciences DNA was counterstained with methylene blue as a loading control.
structure (smiles),measurement,setting,value
CC(=O)c1ccc(S(=O)(=O)NC(=O)NC2CCCCC2)cc1 [acetohexamide],MUTYH protein levels,[1],decrease in MUTYH protein levels in a proteasome dependent manner
same,survival of ΔMUTYH cells after UV,[2],did not have a noticeable effect on survival
same,SUR1 expression,[3],not expressed
same,"clearance of CPDs, dot blot",[4],same observation was also made for HAP1 cell lines
